The results in this text go back to patent US20240308976A1, “COMPOUNDS THAT MEDIATE PROTEIN DEGRADATION AND USES THEREOF” (Monte Rosa Therapeutics, Inc., priority 2021, published 2024).

One assay addresses CRBN-DDB1 (Homo sapiens, UniProt Q96SW2). Briefly: Compound binding to CRBN by HTRF assay. As to conditions: CRBN-DDB1 2.5 nM, Cy5-Thalidomide 100 nM, 30 min at ambient temperature; read-out: HTRF Class (Cereblon binding, HTRF IC50). In short, it runs like this:
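Cy5-thalidomide (100 nM) displacement from His-tagged CRBN-DDB1 (2.5 nM) read by terbium-cryptate HTRF (665/620 nm), in 20 mM HEPES, 20 mM NaCl, 0.2 mM TCEP, 0.2 mM EDTA, 0.005% Tween20. Compounds tested as 10-point 1:3 series, 30 min at ambient temperature. Signal normalised to DMSO and lenalidomide controls; IC50 fitted, Ki by Cheng-Prusoff.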

For another assay, the target named is T1, GSPT1 (Homo sapiens, UniProt P15170+Q96SW2).
T1 construct: CAL-51 cells were purchased from DSMZ (cat. Number ACC302); host or cells: CAL-51
Briefly: Immunofluorescence assay for activity to degrade GSPT1 in CAL-51 cells. The class given is cell-based. As to conditions: 6 h treatment, read-out: IF Class (GSPT1 degradation, DC50). The procedure, abridged: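 CAL-51 cells treated 6 h with compound (30 μM to 0.1 nM), fixed, immunostained for GSPT1 with DAPI and phalloidin counterstains, imaged by high-content microscopy. Mean per-cell GSPT1 intensity normalized to controls; DC50 by non-linear regression.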

T1 sequence (P15170 whole entry): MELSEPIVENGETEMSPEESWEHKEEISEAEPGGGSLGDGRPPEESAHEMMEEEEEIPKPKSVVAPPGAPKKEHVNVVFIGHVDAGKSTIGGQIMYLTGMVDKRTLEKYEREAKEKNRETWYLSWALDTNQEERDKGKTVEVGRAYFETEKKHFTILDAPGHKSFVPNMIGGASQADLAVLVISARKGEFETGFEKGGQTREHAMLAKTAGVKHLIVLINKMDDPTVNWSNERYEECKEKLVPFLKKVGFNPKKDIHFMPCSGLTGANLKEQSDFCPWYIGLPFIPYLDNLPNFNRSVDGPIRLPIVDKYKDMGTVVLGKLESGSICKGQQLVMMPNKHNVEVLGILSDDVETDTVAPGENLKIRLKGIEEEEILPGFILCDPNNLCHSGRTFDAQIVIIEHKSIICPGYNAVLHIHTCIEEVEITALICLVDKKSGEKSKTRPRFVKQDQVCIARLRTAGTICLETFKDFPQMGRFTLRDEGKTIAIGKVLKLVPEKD
T1 sequence (Q96SW2 whole entry): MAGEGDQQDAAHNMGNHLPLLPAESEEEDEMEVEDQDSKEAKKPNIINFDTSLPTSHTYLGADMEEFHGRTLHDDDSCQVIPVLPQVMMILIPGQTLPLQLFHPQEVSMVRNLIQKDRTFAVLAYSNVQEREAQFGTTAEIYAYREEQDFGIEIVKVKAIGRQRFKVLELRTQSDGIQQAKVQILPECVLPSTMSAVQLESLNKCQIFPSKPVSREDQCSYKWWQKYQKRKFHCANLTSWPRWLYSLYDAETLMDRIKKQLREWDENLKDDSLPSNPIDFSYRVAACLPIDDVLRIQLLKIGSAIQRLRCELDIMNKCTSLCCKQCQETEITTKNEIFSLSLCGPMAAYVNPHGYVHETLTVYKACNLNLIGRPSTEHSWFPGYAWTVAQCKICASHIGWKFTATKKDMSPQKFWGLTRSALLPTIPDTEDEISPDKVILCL
T1 sequence (Q16531 2-1140 partner limits assumed): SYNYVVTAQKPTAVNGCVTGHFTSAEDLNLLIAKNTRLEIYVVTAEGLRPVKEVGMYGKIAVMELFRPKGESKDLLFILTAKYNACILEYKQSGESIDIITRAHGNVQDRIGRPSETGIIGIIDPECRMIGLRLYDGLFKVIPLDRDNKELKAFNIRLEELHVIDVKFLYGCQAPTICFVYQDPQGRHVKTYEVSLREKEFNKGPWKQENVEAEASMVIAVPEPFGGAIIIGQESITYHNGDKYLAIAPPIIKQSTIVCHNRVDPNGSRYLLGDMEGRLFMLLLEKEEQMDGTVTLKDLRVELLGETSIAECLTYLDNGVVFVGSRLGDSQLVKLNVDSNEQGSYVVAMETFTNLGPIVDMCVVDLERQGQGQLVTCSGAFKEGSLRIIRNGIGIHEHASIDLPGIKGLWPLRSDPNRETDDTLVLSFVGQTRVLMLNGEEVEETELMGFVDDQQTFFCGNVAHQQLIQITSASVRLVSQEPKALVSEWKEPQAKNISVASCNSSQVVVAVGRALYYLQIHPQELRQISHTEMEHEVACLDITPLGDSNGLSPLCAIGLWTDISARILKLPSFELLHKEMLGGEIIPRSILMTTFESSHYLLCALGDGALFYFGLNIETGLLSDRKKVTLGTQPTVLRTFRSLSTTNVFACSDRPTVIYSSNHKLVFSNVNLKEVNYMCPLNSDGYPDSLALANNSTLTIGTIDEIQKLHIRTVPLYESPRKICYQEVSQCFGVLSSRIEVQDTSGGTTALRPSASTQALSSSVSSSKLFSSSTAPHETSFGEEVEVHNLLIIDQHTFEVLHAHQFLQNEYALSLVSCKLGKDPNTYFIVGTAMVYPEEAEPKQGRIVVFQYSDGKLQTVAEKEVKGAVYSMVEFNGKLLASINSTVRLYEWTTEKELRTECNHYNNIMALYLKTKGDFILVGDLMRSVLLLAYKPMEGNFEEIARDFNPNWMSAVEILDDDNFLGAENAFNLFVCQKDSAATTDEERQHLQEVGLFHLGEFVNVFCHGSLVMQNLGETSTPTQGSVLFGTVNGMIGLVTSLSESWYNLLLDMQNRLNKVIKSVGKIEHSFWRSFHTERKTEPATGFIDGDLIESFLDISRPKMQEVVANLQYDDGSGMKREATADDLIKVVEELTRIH
Chain of CRBN-DDB1 (Q96SW2 whole entry): as the sequence (Q96SW2 whole entry) above
Chain of CRBN-DDB1 (Q16531 whole entry partner): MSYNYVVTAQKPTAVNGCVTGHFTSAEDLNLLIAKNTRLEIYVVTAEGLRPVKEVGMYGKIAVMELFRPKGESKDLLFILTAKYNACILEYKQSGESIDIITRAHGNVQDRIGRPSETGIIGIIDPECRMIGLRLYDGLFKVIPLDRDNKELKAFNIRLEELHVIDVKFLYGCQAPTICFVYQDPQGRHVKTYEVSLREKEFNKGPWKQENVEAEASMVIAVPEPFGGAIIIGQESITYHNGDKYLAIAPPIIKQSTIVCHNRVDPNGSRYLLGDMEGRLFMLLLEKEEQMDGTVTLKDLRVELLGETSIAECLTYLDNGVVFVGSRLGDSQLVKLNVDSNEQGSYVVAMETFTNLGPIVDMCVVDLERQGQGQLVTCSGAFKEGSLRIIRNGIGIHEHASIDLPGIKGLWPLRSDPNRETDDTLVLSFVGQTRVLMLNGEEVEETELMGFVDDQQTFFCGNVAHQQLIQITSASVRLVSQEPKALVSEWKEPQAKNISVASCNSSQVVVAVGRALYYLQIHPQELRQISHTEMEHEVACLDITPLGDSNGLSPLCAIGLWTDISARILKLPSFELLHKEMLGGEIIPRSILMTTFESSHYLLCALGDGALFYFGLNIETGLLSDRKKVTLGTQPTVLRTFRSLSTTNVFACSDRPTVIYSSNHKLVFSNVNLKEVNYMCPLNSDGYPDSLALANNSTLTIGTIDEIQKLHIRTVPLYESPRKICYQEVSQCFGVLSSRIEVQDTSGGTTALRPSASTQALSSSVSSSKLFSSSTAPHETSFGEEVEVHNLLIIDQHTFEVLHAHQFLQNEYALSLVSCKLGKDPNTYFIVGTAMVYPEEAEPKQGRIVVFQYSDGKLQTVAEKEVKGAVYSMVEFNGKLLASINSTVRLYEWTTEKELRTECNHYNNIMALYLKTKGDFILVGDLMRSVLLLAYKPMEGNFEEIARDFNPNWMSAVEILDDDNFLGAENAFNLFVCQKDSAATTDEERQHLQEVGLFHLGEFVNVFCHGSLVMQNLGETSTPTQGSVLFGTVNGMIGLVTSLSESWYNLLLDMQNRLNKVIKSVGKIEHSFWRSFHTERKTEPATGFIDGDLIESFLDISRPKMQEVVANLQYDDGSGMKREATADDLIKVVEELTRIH

One may read the IC50 as the point on the concentration scale where inhibition reaches its midpoint. What is called DC50 is the midpoint of the concentration-degradation curve. Regarding `O=C1CCC(c2c(F)cc(N3CC(NC(=O)Nc4cc(F)cc(OC(F)(F)F)c4)C3)cc2F)C(=O)N1` (stereo not shown) [Compound 50, 1-(1-(4-(2,6-dioxopiperidin-3-yl)-3,5-difluorophenyl)azetidin-3-yl)-3-(3-fluoro-5-(trifluoromethoxy)phenyl)urea], the IC50 on CRBN-DDB1 lay in the range of 100 to 1000 nM. Besides, the DC50 at GSPT1 was in the range of 30 to 300 nM.

As to `O=C1CCC(c2c(F)cc(N3CC(OC(=O)NC4CCC4)C3)cc2F)C(=O)N1` (stereo not shown) [Compound 90, 1-(4-(2,6-dioxopiperidin-3-yl)-3,5-difluorophenyl) azetidin-3-yl cyclobutylcarbamate], on CRBN-DDB1, the concentration for half-maximal inhibition (IC50) lay within 100 to 1000 nM. Further, the DC50 on GSPT1 was above 300 nM.

Turning to `O=C1CCC(c2c(F)cc(N3CC(NC(=O)Nc4ccc(-c5ccccn5)cc4)C3)cc2F)C(=O)N1` (stereo not shown) [Compound 26, 1-(1-(4-(2,6-dioxopiperidin-3-yl)-3,5-difluorophenyl)azetidin-3-yl)-3-(4-(pyridin-2-yl)phenyl)urea], the IC50 at CRBN-DDB1 was at most 100 nM. Also, the DC50 on GSPT1 was at most 30 nM.

Consider `Cc1cc(NC(=O)OC2CN(c3cc(F)c(C4CCC(=O)NC4=O)c(F)c3)C2)ccc1F` (stereo not shown) [Compound 76, 1-(4-(2,6-dioxopiperidin-3-yl)-3,5-difluorophenyl)azetidin-3-yl (4-fluoro-3-methylphenyl)carbamate], for which the IC50 on CRBN-DDB1 was at most 100 nM. In addition, the DC50 at GSPT1 is at most 30 nM.

Take `Cc1ccc(NC(=O)OC2CN(c3ccc(C4CCC(=O)NC4=O)c(C#N)c3)C2)cc1Cl` (stereo not shown) [Compound 57, 1-(3-cyano-4-(2,6-dioxopiperidin-3-yl)phenyl)azetidin-3-yl(3-chloro-4-methylphenyl)carbamate]: at CRBN-DDB1, the IC50 was above 1000 nM. Further, the DC50 at GSPT1 lay in the range of 30 to 300 nM.

Turning to `O=C1CCC(c2c(F)cc(N3CC(OC(=O)NC4CC4)C3)cc2F)C(=O)N1` (stereo not shown) [Compound 86, 1-(4-(2,6-dioxopiperidin-3-yl)-3,5-difluorophenyl)azetidin-3-yl cyclopropylcarbamate], the IC50 at CRBN-DDB1 fell in the range of 100 to 1000 nM. Besides, the DC50 on GSPT1 was above 300 nM.

`O=C1CCC(c2c(F)cc(N3CC(OC(=O)N[C@@H]4CCOC4)C3)cc2F)C(=O)N1` (stereo partly drawn) [Compound 83, 1-(4-(2,6-dioxopiperidin-3-yl)-3,5-difluorophenyl)azetidin-3-yl ((R)-tetrahydrofuran-3-yl)carbamate]: on CRBN-DDB1, the IC50 is 100 to 1000 nM. For the same compound, on GSPT1, the 50% degradation concentration (DC50) is above 300 nM.

In the case of `O=C1CCC(c2c(F)cc(N3CC(OC(=O)NC45CC(CF)(C4)C5)C3)cc2F)C(=O)N1` (stereo not shown) [Compound 68, 1-(4-(2,6-dioxopiperidin-3-yl)-3,5-difluorophenyl)azetidin-3-yl (3-(fluoromethyl)bicyclo[1.1.1]pentan-1-yl) carbamate], the IC50 at CRBN-DDB1 is at most 100 nM. Besides, the DC50 at GSPT1 lay within 30 to 300 nM.
